These results are taken from patent US8283361B2 (AstraZeneca AB, priority 2008, dated 2012).

Sequence of S. aureus GyrB ATPase (P0A0K8 whole entry): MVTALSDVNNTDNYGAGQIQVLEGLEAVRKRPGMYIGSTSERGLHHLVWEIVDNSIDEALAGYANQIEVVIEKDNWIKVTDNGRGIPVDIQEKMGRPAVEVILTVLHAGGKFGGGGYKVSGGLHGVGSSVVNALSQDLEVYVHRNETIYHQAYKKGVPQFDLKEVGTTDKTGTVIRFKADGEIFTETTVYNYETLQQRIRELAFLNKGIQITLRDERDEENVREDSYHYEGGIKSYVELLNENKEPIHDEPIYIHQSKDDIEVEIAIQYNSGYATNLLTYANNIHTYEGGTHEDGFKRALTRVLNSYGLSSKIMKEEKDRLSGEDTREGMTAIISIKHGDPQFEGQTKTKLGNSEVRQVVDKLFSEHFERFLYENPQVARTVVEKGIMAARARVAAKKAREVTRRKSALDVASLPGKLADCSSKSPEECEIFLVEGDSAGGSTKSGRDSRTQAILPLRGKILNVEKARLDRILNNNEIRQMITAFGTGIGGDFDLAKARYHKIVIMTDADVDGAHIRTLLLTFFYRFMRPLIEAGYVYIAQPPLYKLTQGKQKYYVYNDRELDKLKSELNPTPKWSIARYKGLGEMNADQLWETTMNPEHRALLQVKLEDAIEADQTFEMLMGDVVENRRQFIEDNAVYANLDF
Sequence of S. aureus GyrB ATPase (P0AES4 whole entry, further chain): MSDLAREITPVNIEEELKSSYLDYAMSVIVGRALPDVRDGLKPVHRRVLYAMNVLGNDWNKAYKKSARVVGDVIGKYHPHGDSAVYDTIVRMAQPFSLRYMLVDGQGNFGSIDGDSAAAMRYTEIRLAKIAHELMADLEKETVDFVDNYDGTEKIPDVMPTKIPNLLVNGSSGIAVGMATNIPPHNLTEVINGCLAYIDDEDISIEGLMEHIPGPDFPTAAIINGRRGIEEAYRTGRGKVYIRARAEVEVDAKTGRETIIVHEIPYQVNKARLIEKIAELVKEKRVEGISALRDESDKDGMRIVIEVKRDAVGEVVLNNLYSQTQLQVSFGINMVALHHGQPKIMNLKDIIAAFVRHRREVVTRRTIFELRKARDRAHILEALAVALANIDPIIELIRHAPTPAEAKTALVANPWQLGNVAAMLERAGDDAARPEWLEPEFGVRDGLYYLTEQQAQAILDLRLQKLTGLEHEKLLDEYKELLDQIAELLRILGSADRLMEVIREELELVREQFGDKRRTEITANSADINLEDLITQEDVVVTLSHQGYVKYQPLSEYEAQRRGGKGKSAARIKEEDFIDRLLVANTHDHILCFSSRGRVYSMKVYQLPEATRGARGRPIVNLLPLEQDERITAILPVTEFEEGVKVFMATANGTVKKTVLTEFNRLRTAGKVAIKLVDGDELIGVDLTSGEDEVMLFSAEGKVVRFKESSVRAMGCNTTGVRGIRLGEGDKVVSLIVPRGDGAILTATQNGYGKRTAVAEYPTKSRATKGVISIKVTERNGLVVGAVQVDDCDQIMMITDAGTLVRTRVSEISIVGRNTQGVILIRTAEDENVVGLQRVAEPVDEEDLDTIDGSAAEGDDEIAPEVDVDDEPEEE

For one assay, the target named is S. aureus GyrB ATPase (Staphylococcus aureus, UniProt P0A0K8). As to the kind of experiment: biochemical. The following applies: compound at 1 μM; one value per test if tested more than once; 1 µM. In a few lines:
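IC50 values derive from 10-point titrations of compound (in DMSO). Phosphate formed from 250 μM ATP was quantified by acidic molybdate/malachite green after quenching.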
In the case of `CCNC(=O)Nc1cc(-c2nc(C(F)(F)F)cs2)c(-c2ccc3c(c2)c(=O)c(C(=O)O)cn3[C@H](CO)CC(C)C)cn1` [Example 95, (S)-6-(6-(3-ethylureido)-4-(4-(trifluoromethyl)thiazol-2-yl)pyridin-3-yl)-1-(1-hydroxy-4-methylpentan-2-yl)-4-oxo-1,4-dihydroquinoline-3-carboxylic acid], the “% Inhibition of S. aureus GyrB ATPase” value stood at 109%.

The assay is the same for the next values; noted with them: compound at 1 μM; one value per test if tested more than once; read-out: % Inhibition of S. aureus GyrB ATPase.
One may read the inhibition as the relative decrease from the control value, in per cent. As to `CCNC(=O)Nc1cc(-c2nc(C(F)(F)F)cs2)c(-c2ccc3c(=O)c(C(=O)NCCN4CCOCC4)cn(CCO)c3c2)cn1` [Example 367, 7-{6-[(ethylcarbamoyl)amino]-4-[4-(trifluoromethyl)-1,3-thiazol-2-yl]pyridin-3-yl}-1-(2-hydroxyethyl)-N-[2-(morpholin-4-yl)ethyl]-4-oxo-1,4-dihydroquinoline-3-carboxamide], the inhibition at 1 µM was determined as 100%.

For `CCNC(=O)Nc1cc(-c2nc(C(F)(F)F)cs2)c(-c2ccc3c(c2)c(=O)c(C(=O)O)cn3[C@@H]2CCCC[C@H]2O)cn1` [Example 278, 6-(6-(3-ethylureido)-4-(4-(trifluoromethyl)thiazol-2-yl)pyridin-3-yl)-1-((1R,2R)-2-hydroxycyclohexyl)-4-oxo-1,4-dihydroquinoline-3-carboxylic acid], the inhibition at 1 µM worked out at 101%.

For the compound `CCNC(=O)Nc1cc(-c2nc(C(F)(F)F)cs2)c(-c2ccc3c(=O)c(C(=O)NC)cn(CCC(C)C)c3c2)cn1` [Example 335, 7-{6-[(ethylcarbamoyl)amino]-4-[4-(trifluoromethyl)-1,3-thiazol-2-yl]pyridin-3-yl}-N-methyl-1-(3-methylbutyl)-4-oxo-1,4-dihydroquinoline-3-carboxamide], the inhibition at 1 µM worked out at 107%.

As to `CCNC(=O)Nc1cc(-c2nc(C(F)(F)F)cs2)c(-c2ccc3c(=O)c(C(=O)NCCN4CCOCC4)cn(CC4CC4)c3c2)cn1` [Example 378, 1-(Cyclopropylmethyl)-7-{6-[(ethylcarbamoyl)amino]-4-[4-(trifluoromethyl)-1,3-thiazol-2-yl]pyridin-3-yl}-N-[2-(morpholin-4-yl)ethyl]-4-oxo-1,4-dihydroquinoline-3-carboxamide], the inhibition at 1 µM amounted to 107%.

Take `CCNC(=O)Nc1cc(-c2nc(C(F)(F)F)cs2)c(-c2ccc3c(c2)c(=O)c(C(=O)O)cn3C(CC)CO)cn1` (stereo not drawn) [Example 93, 6-(6-(3-ethylureido)-4-(4-(trifluoromethyl)thiazol-2-yl)pyridin-3-yl)-1-(1-hydroxybutan-2-yl)-4-oxo-1,4-dihydroquinoline-3-carboxylic acid]: the inhibition at 1 µM was 95%.

As for `CCNC(=O)Nc1cc(-c2nc(C(F)(F)F)cs2)c(-c2ccc3c(=O)c(C(=O)NCCCO)cn(Cc4cccnc4)c3c2)cn1` [Example 359, 7-{6-[(ethylcarbamoyl)amino]-4-[4-(trifluoromethyl)-1,3-thiazol-2-yl]pyridin-3-yl}-N-(3-hydroxypropyl)-4-oxo-1-(pyridin-3-ylmethyl)-1,4-dihydroquinoline-3-carboxamide], the inhibition at 1 µM turned out to be 92%.

Consider `CCNC(=O)Nc1cc(-c2nc(C(F)(F)F)cs2)c(-c2ccc3c(c2)c(=O)c(C(=O)N2CCN(S(=O)(=O)N(C)C)CC2)cn3CCN(C)C)cn1` [Example 159, 4-(1-(2-(dimethylamino)ethyl)-6-(6-(3-ethylureido)-4-(4-(trifluoromethyl)thiazol-2-yl)pyridin-3-yl)-4-oxo-1,4-dihydroquinoline-3-carbonyl)-N,N-dimethylpiperazine-1-sulfonamide], for which the inhibition at 1 µM amounted to 105%.

As for `CCNC(=O)Nc1cc(-c2nc(C(F)(F)F)cs2)c(-c2ccc3c(c2)c(=O)c(C(=O)O)cn3CCN(C)C)cn1` [Example 18, 1-(2-(dimethylamino)ethyl)-6-(6-(3-ethylureido)-4-(4-(trifluoromethyl)thiazol-2-yl)pyridin-3-yl)-4-oxo-1,4-dihydroquinoline-3-carboxylic acid], the inhibition at 1 µM turned out to be 98%.

Consider `CCNC(=O)Nc1cc(-c2nc(C(F)(F)F)cs2)c(-c2cc3c4c(c2)c(=O)c(C(=O)O)cn4CCO3)cn1` [Example 11, 9-(6-(3-ethylureido)-4-(4-trifluoromethylthiazol-2-yl)pyridin-3-yl)-7-oxo-3,7-dihydro-2H-[1,4]oxazino[2,3,4-ij]quinoline-6-carboxylic acid], for which the inhibition at 1 µM was found to be 102%.

Regarding `CCNC(=O)Nc1cc(-c2nc(C(F)(F)F)cs2)c(-c2ccc3c(c2)c(=O)c(C(=O)NC)cn3C(COC)COC)cn1` [Example 129, 1-(1,3-dimethoxypropan-2-yl)-6-(6-(3-ethylureido)-4-(4-(trifluoromethyl)thiazol-2-yl)pyridin-3-yl)-N-methyl-4-oxo-1,4-dihydroquinoline-3-carboxamide], the inhibition at 1 µM turned out to be 93%.

In the case of `CCCn1cc(C(=O)NCCN(C)C)c(=O)c2ccc(-c3cnc(NC(=O)NCC)cc3-c3nc(C(F)(F)F)cs3)cc21` [Example 350, N-[2-(dimethylamino)ethyl]-7-{6-[(ethylcarbamoyl)amino]-4-[4-(trifluoromethyl)-1,3-thiazol-2-yl]pyridin-3-yl}-4-oxo-1-propyl-1,4-dihydroquinoline-3-carboxamide], the inhibition at 1 µM came out at 96%.

Regarding `CCNC(=O)Nc1cc(-c2nc(C(F)(F)F)cs2)c(-c2ccc3c(c2)c(=O)c(C(=O)O)cn3[C@H]2CCCN(CC(C)(C)CN3CCOCC3)C2)cn1` [Example 289, (S)-1-(1-(2,2-dimethyl-3-morpholinopropyl)piperidin-3-yl)-6-(6-(3-ethylureido)-4-(4-(trifluoromethyl)thiazol-2-yl)pyridin-3-yl)-4-oxo-1,4-dihydroquinoline-3-carboxylic acid], the inhibition at 1 µM was 103%.

`CCNC(=O)Nc1cc(-c2nc(C(F)(F)F)cs2)c(-c2ccc3c(c2)c(=O)c(C(=O)O)cn3C[C@@H]2CCCO2)cn1` [Example 88, (S)-6-(6-(3-ethylureido)-4-(4-(trifluoromethyl)thiazol-2-yl)pyridin-3-yl)-4-oxo-1-((tetrahydrofuran-2-yl)methyl)-1,4-dihydroquinoline-3-carboxylic acid]: the inhibition at 1 µM was determined as 90%.

`CCCNC(=O)Nc1cc(-c2nc(C(F)(F)F)cs2)c(-c2ccc3c(c2)c(=O)c(C(=O)NCCO)cn3CCN2CCOCC2)cn1` [Example 205, N-(2-hydroxyethyl)-1-(2-morpholinoethyl)-4-oxo-6-(6-(3-propylureido)-4-(4-(trifluoromethyl)thiazol-2-yl)pyridin-3-yl)-1,4-dihydroquinoline-3-carboxamide]: the inhibition at 1 µM was 94%.

Turning to `CCNC(=O)Nc1cc(-c2nc(C(F)(F)F)cs2)c(-c2ccc3c(c2)c(=O)c(C(=O)O)cn3[C@@H]2CCCN(CC(C)(C)C)C2)cn1` [Example 286], the inhibition at 1 µM amounted to 102%.

For `CCNC(=O)Nc1cc(-c2nc(C(F)(F)F)cs2)c(-c2ccc3c(c2)c(=O)c(C(=O)NCCOC)cn3C2CC2)cn1` [Example 325, 1-Cyclopropyl-6-(6-(3-ethylureido)-4-(4-(trifluoromethyl)thiazol-2-yl)pyridin-3-yl)-N-(2-methoxyethyl)-4-oxo-1,4-dihydroquinoline-3-carboxamide], the inhibition at 1 µM is 96%.

For `CCNC(=O)Nc1cc(-c2nc(C(F)(F)F)cs2)c(-c2ccc3c(=O)c(C(=O)NCCN4CCN(C)CC4)cn(CC4CC4)c3c2)cn1` [Example 379, 1-(Cyclopropylmethyl)-7-{6-[(ethylcarbamoyl)amino]-4-[4-(trifluoromethyl)-1,3-thiazol-2-yl]pyridin-3-yl}-N-[2-(4-methylpiperazin-1-yl)ethyl]-4-oxo-1,4-dihydroquinoline-3-carboxamide], the inhibition at 1 µM turned out to be 97%.

With `CCNC(=O)Nc1cc(-c2nc(C(F)(F)F)cs2)c(-c2ccc3c(c2)c(=O)c(C(=O)N2CCN(CCO)CC2)cn3C(COC)COC)cn1` [Example 141, 1-{5-[1-(1,3-dimethoxypropan-2-yl)-3-{[4-(2-hydroxyethyl)piperazin-1-yl]carbonyl}-4-oxo-1,4-dihydroquinolin-6-yl]-4-[4-(trifluoromethyl)-1,3-thiazol-2-yl]pyridin-2-yl}-3-ethylurea], the inhibition at 1 µM turned out to be 97%.

On to `CCNC(=O)Nc1cc(-c2nc(C(F)(F)F)cs2)c(-c2ccc3c(c2)c(=O)c(C(=O)O)cn3C2CCCCC2)cn1` [Example 322, 1-Cyclohexyl-6-(6-(3-ethylureido)-4-(4-(trifluoro-methyl)thiazol-2-yl)pyridin-3-yl)-4-oxo-1,4-dihydroquinoline-3-carboxylic acid], for which the inhibition at 1 µM is 96%.

As for `CCNC(=O)Nc1cc(-c2nc(C(F)(F)F)cs2)c(-c2ccc3c(c2)c(=O)c(C(=O)O)cn3[C@@H]2CCNC2)cn1` [Example 244, (R)-6-(6-(3-ethylureido)-4-(4-(trifluoromethyl)thiazol-2-yl)pyridin-3-yl)-4-oxo-1-(pyrrolidin-3-yl)-1,4-dihydroquinoline-3-carboxylic acid], the inhibition at 1 µM was 111%.

`COCCn1cc(C(=O)NCCO)c(=O)c2cc(-c3cnc(NC(=O)NC(C)C)cc3-c3nc(C(F)(F)F)cs3)ccc21` [Example 208, N-(2-hydroxyethyl)-6-(6-(3-isopropylureido)-4-(4-(trifluoromethyl)thiazol-2-yl)pyridin-3-yl)-1-(2-methoxyethyl)-4-oxo-1,4-dihydroquinoline-3-carboxamide]: the inhibition at 1 µM came out at 97%.

In the case of `CCNC(=O)Nc1cc(-c2nc(C(F)(F)F)cs2)c(-c2ccc3c(c2)c(=O)c(C(=O)O)cn3[C@H]2CCCN(CCN3CCOCC3)C2)cn1` [Example 284, (S)-ethyl 6-(6-(3-ethylureido)-4-(4-(trifluoromethyl)thiazol-2-yl)pyridin-3-yl)-1-(1-(2-morpholinoethyl)piperidin-3-yl)-4-oxo-1,4-dihydroquinoline-3-carboxylic acid], the inhibition at 1 µM was 107%.

Consider `CCNC(=O)Nc1cc(-c2nc(C(F)(F)F)cs2)c(-c2ccc3c(c2)c(=O)c(C(=O)O)cn3CC2CCCN(C)C2)cn1` (stereo not drawn) [Example 313, 6-(6-(3-ethylureido)-4-(4-(trifluoromethyl)thiazol-2-yl)pyridin-3-yl)-1-((1-methylpiperidin-3-yl)methyl)-4-oxo-1,4-dihydroquinoline-3-carboxylic acid], for which the inhibition at 1 µM worked out at 103%.
